Assay results published in US10807995B2, “Thienothiophene compounds for long-acting injectable compositions and related methods” (priority 2018, dated 2020).
Where “and” joins values, the source holds several entries; their conditions need not be identical. Equal values may be shown once.

Assays:
[1] = Whole blood stability assay; assay type: in vitro ADME; conditions: prodrug 50 nM in fresh pooled human whole blood, 37 degrees C.; read-out: t1/2 at 37 degrees C. in human whole blood
Procedure: Naltrexone prodrug stability was assessed using freshly collected whole blood (within 24-hr collection) from pooled human (n=3) donors. The incubation mixtures were prepared by spiking the prodrugs into pre-warmed (37 degrees C.) fresh whole blood to a final concentration of 50 nM. After gentle mixing, aliquots of incubation mixtures were immediately transferred into four different 96-deep well plates. One plate was used for each time point. The plates were incubated at 37 degrees C. at a shaking speed of 100 rpm. At time points 15, 30, 60 and 120 minutes, the reaction was quenched by addition of a mixture of water and acetonitrile containing the internal standard (naltrexone-D3). Time point 0 minutes was prepared separately by spiking the prodrugs into a quenched whole blood to obtain a final concentration of 50 nM. All samples were vortexed at a low speed for 15 min and centrifuged at 3900 rpm for 15 min. Supernatants were transferred into 96-well plates for LC-MS/MS analysis to monitor the depletion of the prodrugs and the formation of naltrexone.
The amount of remaining prodrug and released naltrexone for each sample was quantitated against the calibration curves prepared with the whole blood. The human whole blood was purchased from BioreclamationIVT (Westbury, N.Y., USA). Naltrexone-D3 was purchased from Cerilliant® (Round Rock, Tex., USA). […] Where multiple runs have been completed, average values are reported.

[2] = Pharmacokinetic evaluation of the release of naltrexone from Compound 3 in rats following a single intramuscular injection; assay type: in vivo, Sprague-Dawley rats; conditions: for Compound 3 conc.: plasma of individual rats (Rat 1-6)
Procedure: Six male Sprague-Dawley rats were allowed to acclimate to the test facility for at least 3 days prior to study start. For dose administration of Compound 3, the rats were lightly anesthetized with isofluorane, the hind leg shaved and dosed intramuscularly with the formulation using a 20 G needle. […] Serial whole blood samples were collected via sublingual route (˜150 μL) at 1, 8, and 24 hours post dose, and at 2, 4, 7, 10, 15, 22, 24, 28, 35, 42, 49, 56 and 63 days post dose.
Blood samples were placed into K2EDTA blood collection tubes. After collection, blood samples were maintained chilled (on wet ice) and centrifuged (11,500 rpm for 2 minutes at 5 degrees C.) within 30 minutes to obtain plasma. Plasma was transferred into a single vial, 1.5 mL screw cap micro-centrifuge tube with inserts and stored at −80 degrees C. until analysis.
The formulation dosed was a crystalline suspension of Compound 3 (44.4 milligrams of Compound 3 dosed per animal), wherein the crystalline test article was characterized with a particle size distribution of Dv10=1.6 μm, Dv50=4.1 μm, and Dv90=7.7 μm (as measured via laser diffraction). The formulation was prepared the day before dosing. Details of the formulation dosed are described in Table D below.
Results of the above intramuscular rat study of Compound 3 are shown in Tables E and F. In particular, Table E reports the average blood plasma levels of naltrexone in rat (n=6) over 63 days following intramuscular administration.

[3] = rat plasma over 63 days after single IM Compound 3

O=C(Cc1cc2cc(CC(=O)Oc3ccc4c5c3O[C@H]3C(=O)CC[C@@]6(O)[C@@H](C4)N(CC4CC4)CC[C@]536)sc2s1)Oc1ccc2c3c1O[C@H]1C(=O)CC[C@@]4(O)[C@@H](C2)N(CC2CC2)CC[C@]314 [Compound 1, bis((4R,4aS,7aR,12bS)-3-(cyclopropylmethyl)-4a-hydroxy-7-oxo-2,3,4,4a,5,6,7,7a-octahydro-1H-4,12-methanobenzofuro[3,2-e]isoquinolin-9-yl) 2,2′-(thieno[2,3-b]thiophene-2,5-diyl)diacetate]
half-life at 50 nM [1]: 11 min

O=C(Cc1csc2scc(CC(=O)Oc3ccc4c5c3O[C@H]3C(=O)CC[C@@]6(O)[C@@H](C4)N(CC4CC4)CC[C@]536)c12)Oc1ccc2c3c1O[C@H]1C(=O)CC[C@@]4(O)[C@@H](C2)N(CC2CC2)CC[C@]314 [Compound 2, bis((4R,4aS,7aR,12bS)-3-(cyclopropylmethyl)-4a-hydroxy-7-oxo-2,3,4,4a,5,6,7,7a-octahydro-1H-4,12-methanobenzofuro[3,2-e]isoquinolin-9-yl) 2,2′-(thieno[2,3-b]thiophene-3,4-diyl)diacetate]
half-life at 50 nM [1]: 15.7 min

O=C(Cc1cc2sc(CC(=O)Oc3ccc4c5c3O[C@H]3C(=O)CC[C@@]6(O)[C@@H](C4)N(CC4CC4)CC[C@]536)cc2s1)Oc1ccc2c3c1O[C@H]1C(=O)CC[C@@]4(O)[C@@H](C2)N(CC2CC2)CC[C@]314 [Compound 3, bis((4R,4aS,7aR,12bS)-3-(cyclopropylmethyl)-4a-hydroxy-7-oxo-2,3,4,4a,5,6,7,7a-octahydro-1H-4,12-methanobenzofuro[3,2-e]isoquinolin-9-yl) 2,2′-(thieno[3,2-b]thiophene-2,5-diyl)diacetate]
conversion of Compound 3 to naltrexone ([2]; in rats over 63 days): efficient conversion
Compound 3 conc. ([2]; single IM Compound 3, day 0.042 (1 hr)): <0.1 ng/mL
Compound 3 conc. ([2]; single IM Compound 3, day 0.33 (8 hr)): <0.1 ng/mL
Compound 3 conc. ([2]; single IM Compound 3, day 1): <0.1 ng/mL
Compound 3 conc. ([2]; single IM Compound 3, day 2): <0.1 ng/mL
Compound 3 conc. ([2]; single IM Compound 3, day 4): <0.1 ng/mL
Compound 3 conc. ([2]; single IM Compound 3, day 7): <0.1 ng/mL (5×) and 0.161 ng/mL
Compound 3 conc. ([2]; single IM Compound 3, day 10): <0.1 ng/mL
Compound 3 conc. ([2]; single IM Compound 3, day 15): <0.1 ng/mL
Compound 3 conc. ([2]; single IM Compound 3, day 22): <0.1 ng/mL
Compound 3 conc. ([2]; single IM Compound 3, day 24): <0.1 ng/mL
Compound 3 conc. ([2]; single IM Compound 3, day 28): <0.1 ng/mL
Compound 3 conc. ([2]; single IM Compound 3, day 35): <0.1 ng/mL
Compound 3 conc. ([2]; single IM Compound 3, day 42): <0.1 ng/mL (5×) and 0.128 ng/mL
Compound 3 conc. ([2]; single IM Compound 3, day 49): 0.134 ng/mL and 0.131 ng/mL and 0.138 ng/mL and <0.1 ng/mL (2×) and 0.143 ng/mL
Compound 3 conc. ([2]; single IM Compound 3, day 56): 2.02 ng/mL and 0.753 ng/mL and 0.501 ng/mL and 0.281 ng/mL and 0.245 ng/mL and 0.237 ng/mL
Compound 3 conc. ([2]; single IM Compound 3, day 63): 0.184 ng/mL and 0.229 ng/mL and 0.223 ng/mL and 0.234 ng/mL and 0.255 ng/mL and 0.207 ng/mL
concentrations of parent Compound 3 [2, 3]: generally low to not measurable
half-life at 50 nM [1]: 6.46 min

O=C(O)Cc1cc2sc(CC(=O)Oc3ccc4c5c3O[C@H]3C(=O)CC[C@@]6(O)[C@@H](C4)N(CC4CC4)CC[C@]536)cc2s1 [Compound 3i, 2-(5-(2-(((4R,4aS,7aR,12bS)-3-(cyclopropylmethyl)-4a-hydroxy-7-oxo-2,3,4,4a,5,6,7,7a-octahydro-1H-4,12-methanobenzofuro[3,2-e]isoquinolin-9-yl)oxy)-2-oxoethyl)thieno[3,2-b]thiophen-2-yl)acetic acid]
concentrations of the resultant intermediate Compound 3i [2, 3]: generally low to not measurable
Compound 3i conc. ([2]; resultant intermediate in plasma of individual rats (Rat 1-6) after single IM Compound 3, day 2): <0.2 ng/mL
Compound 3i conc. ([2]; resultant intermediate in plasma of individual rats (Rat 1-6) after single IM Compound 3, day 4): <0.2 ng/mL
Compound 3i conc. ([2]; resultant intermediate in plasma of individual rats (Rat 1-6) after single IM Compound 3, day 7): <0.2 ng/mL
Compound 3i conc. ([2]; resultant intermediate in plasma of individual rats (Rat 1-6) after single IM Compound 3, day 10): <0.2 ng/mL
Compound 3i conc. ([2]; resultant intermediate in plasma of individual rats (Rat 1-6) after single IM Compound 3, day 15): <0.2 ng/mL
Compound 3i conc. ([2]; resultant intermediate in plasma of individual rats (Rat 1-6) after single IM Compound 3, day 22): <0.2 ng/mL
Compound 3i conc. ([2]; resultant intermediate in plasma of individual rats (Rat 1-6) after single IM Compound 3, day 24): <0.2 ng/mL
Compound 3i conc. ([2]; resultant intermediate in plasma of individual rats (Rat 1-6) after single IM Compound 3, day 28): <0.2 ng/mL
Compound 3i conc. ([2]; resultant intermediate in plasma of individual rats (Rat 1-6) after single IM Compound 3, day 35): <0.2 ng/mL
Compound 3i conc. ([2]; resultant intermediate in plasma of individual rats (Rat 1-6) after single IM Compound 3, day 42): <0.2 ng/mL (4×) and 0.805 ng/mL and 0.149 ng/mL

Cc1c(CC(=O)Oc2ccc3c4c2O[C@H]2C(=O)CC[C@@]5(O)[C@@H](C3)N(CC3CC3)CC[C@]425)sc2c(C)c(CC(=O)Oc3ccc4c5c3O[C@H]3C(=O)CC[C@@]6(O)[C@@H](C4)N(CC4CC4)CC[C@]536)sc12 [Compound 4, bis((4R,4aS,7aR,12bS)-3-(cyclopropylmethyl)-4a-hydroxy-7-oxo-2,3,4,4a,5,6,7,7a-octahydro-1H-4,12-methanobenzofuro[3,2-e]isoquinolin-9-yl) 2,2′-(3,6-dimethylthieno[3,2-b]thiophene-2,5-diyl)diacetate]
half-life at 50 nM [1]: 20.7 min

O=C(CCc1cc2sc(CCC(=O)Oc3ccc4c5c3O[C@H]3C(=O)CC[C@@]6(O)[C@@H](C4)N(CC4CC4)CC[C@]536)cc2s1)Oc1ccc2c3c1O[C@H]1C(=O)CC[C@@]4(O)[C@@H](C2)N(CC2CC2)CC[C@]314 [Compound 5, bis((4R,4aS,7aR,12bS)-3-(cyclopropylmethyl)-4a-hydroxy-7-oxo-2,3,4,4a,5,6,7,7a-octahydro-1H-4,12-methanobenzofuro[3,2-e]isoquinolin-9-yl) 3,3′-(thieno[3,2-b]thiophene-2,5-diyl)dipropionate]
half-life at 50 nM [1]: 17.1 min

O=C(Cc1csc2c(CC(=O)Oc3ccc4c5c3O[C@H]3C(=O)CC[C@@]6(O)[C@@H](C4)N(CC4CC4)CC[C@]536)csc12)Oc1ccc2c3c1O[C@H]1C(=O)CC[C@@]4(O)[C@@H](C2)N(CC2CC2)CC[C@]314 [Compound 6, bis((4R,4aS,7aR,12bS)-3-(cyclopropylmethyl)-4a-hydroxy-7-oxo-2,3,4,4a,5,6,7,7a-octahydro-1H-4,12-methanobenzofuro[3,2-e]isoquinolin-9-yl) 2,2′-(thieno[3,2-b]thiophene-3,6-diyl)diacetate]
half-life at 50 nM [1]: 11 min

O=C(Oc1ccc2c3c1O[C@H]1C(=O)CC[C@@]4(O)[C@@H](C2)N(CC2CC2)CC[C@]314)c1ccc(C(=O)Oc2ccc3c4c2O[C@H]2C(=O)CC[C@@]5(O)[C@@H](C3)N(CC3CC3)CC[C@]425)cc1 [Reference Compound A, NTX-3-terephthaloyl-NTX, reference compound]
half-life at 50 nM [1]: 54.7 min
